{"source": "patent US20030109035A1", "about": "“Method of forming vertebrate pancreas in vitro” (priority 2000, published 2003)", "key": {"insulin and XlHbox8": {"system": "insulin and XlHbox8", "test": "RT-PCR expression of pancreas-specific genes in explants", "format": "cell-based, Xenopus laevis", "conditions": "treated with one agent alone, cultured three days", "text": "C., and the expression of insulin that is a pancreas-specific gene (Henry, G. L. et al.; Development 122, 1007-1015, 1996) and XlHbox8 (Lemaire, P. et al.; Development 125, 2371-2380, 1998) were examined by the method as previously described (Yokota, C. et al.; J. Biochem. 123, 339-346, 1998). […] EF-1α (elongation factor 1α) was used as a loading control. The combination of primers of each gene in PCR reaction that were used is as follows: insulin [insulin-[…] No. 1), insulin-[…] No. 2)], […] No. 3), […] No. 4)], […] No. 5), and […] No. 6)]. Seventy-six μl of DDW, 10 μl of 10×Ex buffer, 8 μl of 2.5 mM dNTPs mix, 0.5 μl of 5[…] 0.5 μl of 100 μM of each of the above-mentioned primers were added to 5 μl of the above-mentioned cDNA (20 ng/μl), and PCR reaction was conducted with the total amount of 100 μl. The thermal cycle program, which is a cycle to denature for four minutes at 94° C. only at the first time, followed by thermal denaturation for 30 seconds at 94° C., […], was repeated for 23 to 30 times. Ultimately, annealing was conducted for nine minutes at 72° C. […] As a negative control, EF-1α wherein RT-PCR was conducted under a condition where the reverse transcription factor had been eliminated was used."}, "[1]": {"system": "Xenopus embryos at developmental stage 22 to 32", "conditions": "cited from earlier work"}, "[2]": {"system": "blastopore upper lip cell of Xenopus early gastrula", "conditions": "cited from earlier work"}, "whole embryos": {"system": "whole embryos", "test": "Retinoic acid treatment of whole embryos from blastula to gastrula", "format": "in vivo, Xenopus", "text": "Moreover, there has been a report regarding the effect of retinoic acid to the endoderm of Xenopus embryo (Zeynali, B. and Dixon, K. E.; Dev. Genes. Evol. 208, 318-326, 1998). […] The present inventors conducted retinoic acid treatment to the whole embryos from the period of blastula to gastrula. […] However, the physical relationship of each of the endodermal organs was abnormal and the endodermal organs were formed aggregately in the anterior and posterior axis direction."}, "[3]": {"system": "pieces of presumptive ectoderm of Xenopus late blastula", "test": "Simultaneous and continuous treatment of pieces of presumptive ectoderm with activin/retinoic acid, tissues that differentiate", "format": "cell-based, Xenopus laevis", "conditions": "continuous, activin 100 ng/ml, retinoic acid 0 M, 10 samples", "procedure": "(§1) The dorsal lymph sacs of adult male and female Xenopus laevis were each injected with 600 IU of hCG (human chorionic gonadotropin; Gestron; Denka Seiyaku, Japan), and fertilized eggs were obtained by mating these Xenopuses. These late blastulas [developmental stage 9] were dejellied in Steinberg's solution (SS: 58.00 mM NaCl, 0.67 mM KCl, 0.34 mM Ca(NO3)2, 0.83 mM MgSO4, 3.00 mM HEPES and 100 mg/l kanamycin sulfate; pH 7.4) containing 4.5% cysteine hydrochloride (pH 7.8), and the vitelline membranes were removed in the Steinberg's solution by using a pair of watchmaker's tweezers. The presumptive ectoderm portion of Xenopus late blastula thus obtained was cut into a size of 0.4 mm×0.4 mm by using a tungsten needle.\n(§2) Human recombinant activin A (Ajinomoto Co., Inc.) was dissolved in Steinberg's solution containing 0.1% bovine serum albumin (BSA) to a concentration of 100 ng/ml, and an activin solution was prepared.\nBased on the results from Example 2, since the effect of retinoic acid treatment was found in the differential pattern of mesodermal tissues, it can be considered that retinoic acid acted in the period when the fate of the mesoderm is determined to each mesodermal tissue (notochord, muscle, pronephric tubule and the like, for example). […] C. for 10 days (see continuous treatment in FIG. 1). These explants that had been cultured were stained in the same manner as in Example 2, and the tissues that differentiated were observed and examined by using a light microscope."}, "Xenopus animal cap cells": {"system": "Xenopus animal cap cells", "conditions": "cited from earlier work"}, "[4]": {"system": "pieces of presumptive ectoderm of Xenopus late blastula", "test": "Simultaneous one-hour treatment of pieces of presumptive ectoderm with activin/retinoic acid, tissues that differentiate (light microscopy)", "format": "cell-based, Xenopus laevis", "procedure": "as §1, §2\nC. (see temporary treatment in FIG. 1). These explants that had been cultured were fixed with Bouin's solution, followed by dehydration treatment of a series of ethanol and xylene, and these explants were embedded in paraffin and sliced into 6 μm sections. These sections were stained with hematoxylin and eosin, and the tissues that differentiated were observed and examined under a light microscope. Further, the untreated pieces of presumptive ectoderm were also observed and examined in the same manner by using a light microscope."}, "[5]": {"system": "pieces of presumptive ectoderm of Xenopus late blastula", "test": "Time lag treatment of pieces of presumptive ectoderm with activin then retinoic acid, tissues that differentiate", "format": "cell-based, Xenopus laevis", "conditions": "activin 100 ng/ml alone 1 h, 65 samples", "procedure": "as §1\nA time lag was provided between the treatment with activin and treatment with retinoic acid, so that the action of retinoic acid can be received for the first time, after the differentiation to dorsal mesoderm/anterior endoderm had been determined by action of activin. […] After the elapse of the time lag, the pieces of presumptive ectoderm were left at rest in retinoic acid solution at 10^−4 M for one hour, washed two times with Steinberg's solution containing 0.1% BSA, and then cultured in Steinberg's solution containing 0.1% BSA at 20° C. for ten days (see time lag treatment in FIG. 1). These explants that had been cultured were stained in the same manner as described in Example 2, and the tissues that differentiated were observed and examined under a light microscope."}, "[6]": {"conditions": "activin 100 ng/ml, retinoic acid 0 M, 1 h, 31 samples"}}, "data": [{"molecule": "CC1=C(/C=C/C(C)=C/C=C/C(C)=C/C(=O)O)C(C)(C)CCC1", "note": "[retinoic acid, All-trans retinoic acid]", "values": [{"measurement": "expression of insulin and XlHbox8", "setting": "insulin and XlHbox8", "value": "expression of these genes was not found"}, {"measurement": "expression of XlHbox8", "setting": "[1]", "value": "no effect is found in the expression of XlHbox8"}, {"measurement": "formation of pancreas", "setting": "[1]", "value": "formed normally"}, {"measurement": "morphology of the digestive organs", "setting": "[1]", "value": "the morphology of the digestive organs such as intestines, liver and stomach become abnormal"}, {"measurement": "pancreas formation", "setting": "[2]", "value": "enables pancreas formation with high efficiency"}, {"measurement": "morphology of treated embryos", "setting": "whole embryos", "value": "head-deficient embryos"}, {"measurement": "induction of pancreas in vivo", "setting": "whole embryos; whole embryos treated from blastula to gastrula", "value": "pancreas was not induced specifically in vivo"}]}, {"molecule": "activin: Human recombinant activin A (Ajinomoto Co., Inc.)", "values": [{"measurement": "expression of insulin and XlHbox8", "setting": "insulin and XlHbox8", "value": "induced only a little"}, {"measurement": "Atypical epidermis differentiated in explants", "setting": "[3]", "value": "0(0) number (percentage)"}, {"measurement": "Cartilage differentiated in explants", "setting": "[3]", "value": "1(10) number (percentage)"}, {"measurement": "Coelomic epithelium differentiated in explants", "setting": "[3]", "value": "4(40) number (percentage)"}, {"measurement": "Epidermis differentiated in explants", "setting": "[3]", "value": "9(90) number (percentage)"}, {"measurement": "Intestinal epithelium differentiated in explants", "setting": "[3]", "value": "0(0) number (percentage)"}, {"measurement": "Mesenchyme differentiated in explants", "setting": "[3]", "value": "9(90) number (percentage)"}, {"measurement": "Muscle differentiated in explants", "setting": "[3]", "value": "10(100) number (percentage)"}, {"measurement": "Neural tissue differentiated in explants", "setting": "[3]", "value": "10(100) number (percentage)"}, {"measurement": "Notochord differentiated in explants", "setting": "[3]", "value": "3(30) number (percentage)"}, {"measurement": "Pancreas differentiated in explants", "setting": "[3]", "value": "0(0) number (percentage)"}, {"measurement": "Pharyngeal epithelium differentiated in explants", "setting": "[3]", "value": "5(50) number (percentage)"}, {"measurement": "Pronephric tubule differentiated in explants", "setting": "[3]", "value": "0(0) number (percentage)"}, {"measurement": "Yolk-rich cell differentiated in explants", "setting": "[3]", "value": "5(50) number (percentage)"}, {"measurement": "induction of mesodermal tissues", "setting": "Xenopus animal cap cells", "value": "induces most mesodermal tissues such as notochord, muscle, mesenchyme and coelomic epithelium, dose-dependently"}, {"measurement": "Atypical epidermis differentiated in explants", "setting": "[4]; [6]", "value": "0(0) number (percentage)"}, {"measurement": "Cartilage differentiated in explants", "setting": "[4]; [6]", "value": "5(16) number (percentage)"}, {"measurement": "Coelomic epithelium differentiated in explants", "setting": "[4]; [6]", "value": "15(48) number (percentage)"}, {"measurement": "Epidermis differentiated in explants", "setting": "[4]; [6]", "value": "30(97) number (percentage)"}, {"measurement": "Intestinal epithelium differentiated in explants", "setting": "[4]; [6]", "value": "0(0) number (percentage)"}, {"measurement": "Mesenchyme differentiated in explants", "setting": "[4]; [6]", "value": "31(100) number (percentage)"}, {"measurement": "Muscle differentiated in explants", "setting": "[4]; [6]", "value": "25(81) number (percentage)"}, {"measurement": "Neural tissue differentiated in explants", "setting": "[4]; [6]", "value": "12(39) number (percentage)"}, {"measurement": "Notochord differentiated in explants", "setting": "[4]; [6]", "value": "4(13) number (percentage)"}, {"measurement": "Pancreas differentiated in explants", "setting": "[4]; [6]", "value": "0(0) number (percentage)"}, {"measurement": "Pharyngeal epithelium differentiated in explants", "setting": "[4]; [6]", "value": "12(39) number (percentage)"}, {"measurement": "Pronephric tubule differentiated in explants", "setting": "[4]; [6]", "value": "7(23) number (percentage)"}, {"measurement": "Yolk-rich cell differentiated in explants", "setting": "[4]; [6]", "value": "18(58) number (percentage)"}, {"measurement": "tissues that differentiated", "setting": "[4]; treated only with activin (100 ng/ml)", "value": "dorsal mesodermal and anterior endodermal tissues such as notochord, muscle, pharyngeal epithelium and the like differentiated"}, {"measurement": "Atypical epidermis differentiated in explants", "setting": "[5]", "value": "0(0) number (percentage)"}, {"measurement": "Cartilage differentiated in explants", "setting": "[5]", "value": "12(18) number (percentage)"}, {"measurement": "Coelomic epithelium differentiated in explants", "setting": "[5]", "value": "28(43) number (percentage)"}, {"measurement": "Epidermis differentiated in explants", "setting": "[5]", "value": "59(91) number (percentage)"}, {"measurement": "Intestinal epithelium differentiated in explants", "setting": "[5]", "value": "3(5) number (percentage)"}, {"measurement": "Mesenchyme differentiated in explants", "setting": "[5]", "value": "59(91) number (percentage)"}, {"measurement": "Muscle differentiated in explants", "setting": "[5]", "value": "37(57) number (percentage)"}, {"measurement": "Neural tissue differentiated in explants", "setting": "[5]", "value": "32(49) number (percentage)"}, {"measurement": "Notochord differentiated in explants", "setting": "[5]", "value": "34(52) number (percentage)"}, {"measurement": "Pancreas differentiated in explants", "setting": "[5]", "value": "0(0) number (percentage)"}, {"measurement": "Pharyngeal epithelium differentiated in explants", "setting": "[5]", "value": "37(57) number (percentage)"}, {"measurement": "Pronephric tubule differentiated in explants", "setting": "[5]", "value": "5(8) number (percentage)"}, {"measurement": "Yolk-rich cell differentiated in explants", "setting": "[5]", "value": "29(45) number (percentage)"}]}]}
